# Several values for one entry are separate records, joined by “and”; a condition that tells them apart may be missing. Identical values can stand only once.
# Test system: TWEAK-Fn14 signalling pathway, BRV5 cells
# Test: Cell-based screening of individual peptides, gene expression microarray in TWEAK-stimulated BRV5 cells
# Design: species or system human
# Settings: 6 h; for regulation of probe genes by individual peptides: BRV5 + TWEAK 25 ng/mL, peptides 450 µM; for BIRC2 mRNA expression (normalized to NARS2) / HSP90B1 mRNA expression (normalized to NARS2) / IL6 mRNA expression (normalized to NARS2) / JUN mRNA expression (normalized to NARS2) / MAP4K4 mRNA expression (normalized to NARS2) / MAPK14 mRNA expression (normalized to NARS2) / NFKB2 mRNA expression (normalized to NARS2) / TNFRSF12A mRNA expression (normalized to NARS2) / TRAF2 mRNA expression (normalized to NARS2) / BIRC2 expression Z-Score / HSP90B1 expression Z-Score / IL6 expression Z-Score / JUN expression Z-Score / MAP4K4 expression Z-Score / MAPK14 expression Z-Score / NFKB2 expression Z-Score / TNFRSF12A expression Z-Score / TRAF2 expression Z-Score: individual peptides, BRV5 + TWEAK; for BIRC2 mRNA expression (normalized to NARS2) / HSP90B1 mRNA expression (normalized to NARS2) / IL6 mRNA expression (normalized to NARS2) / JUN mRNA expression (normalized to NARS2) / MAP4K4 mRNA expression (normalized to NARS2) / MAPK14 mRNA expression (normalized to NARS2) / NFKB2 mRNA expression (normalized to NARS2) / TNFRSF12A mRNA expression (normalized to NARS2) / TRAF2 mRNA expression (normalized to NARS2): 450 µM; for BIRC2 expression Z-Score / HSP90B1 expression Z-Score / IL6 expression Z-Score / JUN expression Z-Score / MAP4K4 expression Z-Score / MAPK14 expression Z-Score / NFKB2 expression Z-Score / TNFRSF12A expression Z-Score / TRAF2 expression Z-Score: normalized to NARS2
# Text: Pool 1 and 5 were therefore deconstructed to assess the effect of individual peptides and their activity on same cell-based screening. Pools 1 and 5 were composed of peptides 45, 46, 42, 3, 49, 11, and 13; and of peptides 1, 9, 30, 35, 41, 43, 7, and 14, respectively. As before, and shown in Figure 4B, the level of expression of probe genes on TWEAK-stimulated (T) BRV5 cells is overall higher than on non-stimulated (NT) one. […] The structural model of peptides 43, 30, 35 and 49 bound to TWEAK can be seen in Figure 5 and Supplementary Materials Figures S4–S6, respectively.
# Three different cell lines were used in this study: BRV5, MDA-MB 435 (435-P), and HT29. The BRV5 is a highly metastatic brain cell line, obtained in one of our laboratories by primary culture from a brain of a nude mouse inoculated with human 435-Br1 brain metastatic cells, as previously described and used as a model to test the peptides in cell cultures. […] The triple negative 435-P cell line is a useful human breast cancer model that expresses both epithelial and melanocytic markers, and was included as the parental cell from which 435-Br1 metastatic variant was initially originated (both cell lines kindly provided by Dr Fabra at IDIBELL Institute, Hospitalet de Llobregat, Spain). Finally, HT29 human colon carcinoma cells obtained from the European Type Culture Collection (ECACC 91072201) were used as a positive control of TWEAK dependent Fn14 over-expressing cells to evaluate TWEAK-Fn14 axis of brain metastatic variants.
# Appropriate cell culture conditions were established as the controls needed in the expression of genes with and without peptides and with and without TWEAK activation, both as pools and individually (see Supplementary Materials Figure S2). The protocol started with the seeding of 125,000 cells/well in 500 µL of culture media supplemented with 10% fetal bovine serum (CM+FBS10%) in 24-well dishes for 24 h before removing FBS (CM-FBS). After overnight starvation in CM-FBS culture, different peptide treatment conditions (at final concentration of 450 µM) were established in the presence or absence of TWEAK (25 ng/mL final concentration) (Peprotech EC, Ltd., London, UK). Some cells were treated with peptides at a single, unique, initial dose (time 0) while other were treated with repeated doses to account for the effect cell-culture degradation. These include a repeated treatment every hour (i.e., […]), every two hours (time 0, 2, and 4) and every three hours (time 0 and 3)—see Supplementary Materials Figure S2 for diagrammatic depiction. At time 6 (after six hours) cells were lysed and RNA extracted for transcriptomic analyses (see next). Cell were culture for six hours as this was the time needed to achieve the highest upregulation of the TWEAK-Fn14 axis upon TWEAK treatment as shown in previous time-course RT-PCR experiments (see Figure 2).
# RNA from cells was extracted 6 h after treatments by direct lysis on the well. The RNeasy Micro kit (Qiagen, Hilden, Germany) was used to isolate total RNA from cell lysate following manufacturer’s protocols including an additional step of digestion with DNase I (Qiagen, Hilden, Germany). Total RNA concentration was measured in a NanoDrop 1000 spectrophotometer (Thermo Scientific, Waltham, MA, USA). The RNA extracted from treated and untreated cells (see above) was used as a proxy for gene expression.
# The quantitative RT-PCR was performed using Fluidigm Dynamic Array FlexSix array with the specific primers for gene expression (Delta Genes Assays, Wet lab tested on Dynamic Array IFC) designed to RefSeq for detection by pPCR EvaGreen assay (Dynamic Array FlexSix, Fluidigm Corporation). Each Flex Six IFC has a total of six independent partitions. Each partition has a 12 × 12 format (12 assay inlets and 12 sample inlets) and will be run independently as a separate experimental run. […]
Substance,BIRC2 mRNA expression (normalized to NARS2) (mean of replicate columns),HSP90B1 mRNA expression (normalized to NARS2) (mean of replicate columns),IL6 mRNA expression (normalized to NARS2) (mean of replicate columns),JUN mRNA expression (normalized to NARS2) (mean of replicate columns),MAP4K4 mRNA expression (normalized to NARS2) (mean of replicate columns),MAPK14 mRNA expression (normalized to NARS2) (mean of replicate columns),NFKB2 mRNA expression (normalized to NARS2) (mean of replicate columns),TNFRSF12A mRNA expression (normalized to NARS2) (mean of replicate columns),TRAF2 mRNA expression (normalized to NARS2) (mean of replicate columns),BIRC2 mRNA expression (normalized to NARS2) (replicate column 1),HSP90B1 mRNA expression (normalized to NARS2) (replicate column 1),IL6 mRNA expression (normalized to NARS2) (replicate column 1),JUN mRNA expression (normalized to NARS2) (replicate column 1),MAP4K4 mRNA expression (normalized to NARS2) (replicate column 1),MAPK14 mRNA expression (normalized to NARS2) (replicate column 1),NFKB2 mRNA expression (normalized to NARS2) (replicate column 1),TNFRSF12A mRNA expression (normalized to NARS2) (replicate column 1),TRAF2 mRNA expression (normalized to NARS2) (replicate column 1),BIRC2 mRNA expression (normalized to NARS2) (replicate column 2),HSP90B1 mRNA expression (normalized to NARS2) (replicate column 2),other results
11: SGVAYQETT [Peptide 11],0.6438,2.54,0.001558,0.1006,0.1986,0.2184,0.047,0.01869,0.01037,0.6157,2.376,0.001178,0.09818,0.2001,0.2179,0.04834,0.01871,0.01036,0.6719,2.704,regulation of probe genes by individual peptides: induced a higher level of expression of the gene; IL6 mRNA expression (normalized to NARS2) (replicate column 2): 0.001938; JUN mRNA expression (normalized to NARS2) (replicate column 2): 0.1029; MAP4K4 mRNA expression (normalized to NARS2) (replicate column 2): 0.1972; MAPK14 mRNA expression (normalized to NARS2) (replicate column 2): 0.219; NFKB2 mRNA expression (normalized to NARS2) (replicate column 2): 0.04567; TNFRSF12A mRNA expression (normalized to NARS2) (replicate column 2): 0.01867; TRAF2 mRNA expression (normalized to NARS2) (replicate column 2): 0.01038; BIRC2 expression Z-Score (listed as P11): 0.5906; HSP90B1 expression Z-Score (listed as P11): 0.5337; IL6 expression Z-Score (listed as P11): -0.2862; JUN expression Z-Score (listed as P11): 0.0366 and 0.03662; MAP4K4 expression Z-Score (listed as P11): 0.3403; MAPK14 expression Z-Score (listed as P11): 0.3151; NFKB2 expression Z-Score (listed as P11): 0.622; TNFRSF12A expression Z-Score (listed as P11): -0.2085; TRAF2 expression Z-Score (listed as P11): -0.4411
13: YSGYFGGFY [Peptide 13],0.4307,2.183,0.005226,0.4257,0.2531,0.2388,0.05228,0.02853,0.02474,0.4177,2.2352,0.005457,0.419,0.2593,0.2431,0.05087,0.02856,0.02503,0.4436,2.131,"regulation of probe genes by individual peptides: to some extent, 13 induced a higher level of expression of the gene; IL6 mRNA expression (normalized to NARS2) (replicate column 2): 0.004995; JUN mRNA expression (normalized to NARS2) (replicate column 2): 0.4325; MAP4K4 mRNA expression (normalized to NARS2) (replicate column 2): 0.2468; MAPK14 mRNA expression (normalized to NARS2) (replicate column 2): 0.2344; NFKB2 mRNA expression (normalized to NARS2) (replicate column 2): 0.05368; TNFRSF12A mRNA expression (normalized to NARS2) (replicate column 2): 0.0285; TRAF2 mRNA expression (normalized to NARS2) (replicate column 2): 0.02446; BIRC2 expression Z-Score (listed as P13): -0.8852; HSP90B1 expression Z-Score (listed as P13): -0.101; IL6 expression Z-Score (listed as P13): 2.8881 and 2.888; JUN expression Z-Score (listed as P13): 3.7769 and 3.777; MAP4K4 expression Z-Score (listed as P13): 1.699; MAPK14 expression Z-Score (listed as P13): 0.6701; NFKB2 expression Z-Score (listed as P13): 1.124; TNFRSF12A expression Z-Score (listed as P13): 0.91; TRAF2 expression Z-Score (listed as P13): 0.255"
46: TGYAENV [Peptide 46],0.5415,2.314,0.00187,0.08801,0.2105,0.2302,0.05417,0.01829,0.01616,0.5372,2.32,0.00168,0.08305,0.1965,0.2456,0.05593,0.0189,0.01641,0.5458,2.3087,IL6 mRNA expression (normalized to NARS2) (replicate column 2): 0.002059; JUN mRNA expression (normalized to NARS2) (replicate column 2): 0.09296; MAP4K4 mRNA expression (normalized to NARS2) (replicate column 2): 0.2245; MAPK14 mRNA expression (normalized to NARS2) (replicate column 2): 0.2147; NFKB2 mRNA expression (normalized to NARS2) (replicate column 2): 0.05241; TNFRSF12A mRNA expression (normalized to NARS2) (replicate column 2): 0.01767; TRAF2 mRNA expression (normalized to NARS2) (replicate column 2): 0.01592; BIRC2 expression Z-Score (listed as P46): -0.118; HSP90B1 expression Z-Score (listed as P46): 0.1322; IL6 expression Z-Score (listed as P46): -0.0166 and -0.01658; JUN expression Z-Score (listed as P46): -0.1078; MAP4K4 expression Z-Score (listed as P46): 0.6365; MAPK14 expression Z-Score (listed as P46): 0.5199; NFKB2 expression Z-Score (listed as P46): 1.3042 and 1.304; TNFRSF12A expression Z-Score (listed as P46): -0.2543; TRAF2 expression Z-Score (listed as P46): -0.1604
SGVSTAQLD [Peptide 4],0.6267,2.423,0.001966,0.1025,0.2128,0.1993,0.04458,0.01499,0.01397,0.6069,2.308,0.001514,0.09341,0.1972,0.1927,0.04237,0.01676,0.01481,0.6465,2.538,regulation of probe genes by individual peptides: induced a higher level of expression of the gene; IL6 mRNA expression (normalized to NARS2) (replicate column 2): 0.002418; JUN mRNA expression (normalized to NARS2) (replicate column 2): 0.1116; MAP4K4 mRNA expression (normalized to NARS2) (replicate column 2): 0.2284; MAPK14 mRNA expression (normalized to NARS2) (replicate column 2): 0.2059; NFKB2 mRNA expression (normalized to NARS2) (replicate column 2): 0.04678; TNFRSF12A mRNA expression (normalized to NARS2) (replicate column 2): 0.01322; TRAF2 mRNA expression (normalized to NARS2) (replicate column 2): 0.01313; BIRC2 expression Z-Score (listed as P4): 0.4721; HSP90B1 expression Z-Score (listed as P4): 0.3256; IL6 expression Z-Score (listed as P4): 0.0669 and 0.06688; JUN expression Z-Score (listed as P4): 0.0589 and 0.05892; MAP4K4 expression Z-Score (listed as P4): 0.6937; MAPK14 expression Z-Score (listed as P4): -0.0192 and -0.01918; NFKB2 expression Z-Score (listed as P4): 0.3908; TNFRSF12A expression Z-Score (listed as P4): -0.6289; TRAF2 expression Z-Score (listed as P4): -0.2666
